{"source": "patent US11351152B2", "about": "“Method and composition for treating seizure disorders” (India Globalization Capital, Inc., priority 2016, dated 2022)", "origin": "cited, not measured here", "key": {"[1]": {"system": "patients", "conditions": "200-300 mg of cannabidiol in combination with regular medication"}, "[2]": {"system": "single patient", "conditions": "900-1200 mg of cannabidiol a day for 10 months"}, "[3]": {"system": "epileptic patients", "conditions": "200-300 mg of cannabidiol per day in combination with standard antiepileptic drugs, 12 epileptic patients"}}}
{"smiles": "C=C(C)[C@@H]1CCC(C)=C[C@H]1c1c(O)cc(CCCCC)cc1O", "note": "[cannabidiol]", "values": [{"measurement": "improvement versus placebo", "setting": "[1]", "result": "showed improvement over those that received a placebo"}, {"measurement": "unwanted side effect", "setting": "[1]", "result": "Mild sedation"}, {"measurement": "frequency of seizures", "setting": "[2]", "result": "markedly reduced the frequency of seizures"}, {"measurement": "seizure frequency", "setting": "[3]", "result": "no significant improvement in seizure frequency"}]}
